Structures are written as SMILES. Like-named read-outs stand apart in the source and are kept apart here.

Series [1] relates to 3T3-L1 mouse pre-adipocyte. In words: 3T3-L1 pre-adipocyte differentiation (adipogenesis) assay. To be noted: for adiponectin expression, compound added early: added Day 0 of differentiation; for adiponectin expression / adipogenesis, compound added later: added Day 2 of differentiation. It counts as cell-based. The method, then: We cultured and differentiated mouse 3T3-L1 preadipocytes and primary fibroblasts isolated from 16-days old embryos using standard procedures (Green, et al., Cell 3:127-33 (1974)). After reaching confluence (DMEM, high glucose, 10% calf serum, Day 0), cells were differentiated (3-isobutyl-1-methylxanthine 0.5 mM, dexamethasone 1 μM, insulin 1.7 μM) for 48 h before media replacement every 48 h (DMEM, 10% FCS insulin, 1.7 μM) for 7 days.
Northern blotting was performed as before with HyBond (Amersham; Ziouzenkova, et al., Proc. Natl. Acad. Sci. USA 100:2730-5 (2003)).
(§1) We determined triglyceride content in lysed cells (RIPA buffer, complete protease inhibitor cocktail, Roche) using an enzymatic colorimetric assay (Wako, Japan) and adiponectin levels via ELISA (R&D, Minneapolis). For Western blotting, cell lysates, plasma, and tissue lysates underwent reducing gel separation (10% acrylamide) and hybridization with RXR (Santa Cruz, Calif.), mouse RBP4 (Alpco), or UCP1 (Chemicon) antibodies.
To test Rald effects on adipogenesis, we performed 3T3-L1 mouse pre-adipocyte differentiation assays in the presence of Rald concentrations similar to those found in fat in vivo. Rald levels as low as 100 nM suppressed mRNA expression of the adipogenic target genes CD36, adiponectin, and aP2. These repressive effects of Rald were evident in a concentration-dependent manner in either the presence or absence of the PPARγ agonist BRL49653 (BRL), a potent adipogenic stimulus.

The target of a further series is T1, Human full-length PPARγ2 (Homo sapiens, UniProt P37231).
T1 sequence (P37231 1-505): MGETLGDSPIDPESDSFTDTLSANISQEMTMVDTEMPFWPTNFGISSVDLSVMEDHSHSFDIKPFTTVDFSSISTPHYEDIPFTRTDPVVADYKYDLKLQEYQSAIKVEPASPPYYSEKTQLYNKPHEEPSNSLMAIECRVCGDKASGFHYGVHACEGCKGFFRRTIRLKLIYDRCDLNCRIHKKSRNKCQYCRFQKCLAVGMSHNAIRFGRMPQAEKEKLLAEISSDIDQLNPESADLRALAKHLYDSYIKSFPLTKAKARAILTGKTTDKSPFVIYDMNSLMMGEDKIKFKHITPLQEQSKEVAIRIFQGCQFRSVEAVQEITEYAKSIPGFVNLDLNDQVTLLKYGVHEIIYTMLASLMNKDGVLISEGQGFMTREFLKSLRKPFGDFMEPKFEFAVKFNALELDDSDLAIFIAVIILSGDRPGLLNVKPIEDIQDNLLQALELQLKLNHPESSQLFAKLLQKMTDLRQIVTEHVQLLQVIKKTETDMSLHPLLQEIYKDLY
Briefly: Scintillation proximity assay / cell-free radioligand displacement. The series is classed as binding. As to the method:
Scintillation proximity assays were performed on our behalf.
(§2) Given these effects of Rald on RXR-LBD activation, we next tested if Rald could inhibit activation of a transfected canonical PPAR response element (PPRE) luciferase construct after RXR and/or PPARγ transfection and respective agonist stimulation (9-cis RA or BRL). […] Similar effects were evident in cell-based PPARγ-LBD assays in the presence of BRL. Thus, Rald suppresses adipogenic gene expression, adipocyte lipid accumulation, RXRα and PPARγ-LBD activation, as well as PPRE responses, all at concentrations (<1 μM) that overlap levels present in rodent fat in vivo. Importantly, these Rald effects diverge from the responses seen to RA.
Background: SPA uses beads or plates that emit light when radiolabelled molecules are held near them.

Another series concerns the target T2, RXRα-LBD (Homo sapiens, UniProt P19793).
T2 construct: expressed in transfected cells; host or cells: NIH 3T3 cells
T2 sequence (P19793 227-458 limits assumed): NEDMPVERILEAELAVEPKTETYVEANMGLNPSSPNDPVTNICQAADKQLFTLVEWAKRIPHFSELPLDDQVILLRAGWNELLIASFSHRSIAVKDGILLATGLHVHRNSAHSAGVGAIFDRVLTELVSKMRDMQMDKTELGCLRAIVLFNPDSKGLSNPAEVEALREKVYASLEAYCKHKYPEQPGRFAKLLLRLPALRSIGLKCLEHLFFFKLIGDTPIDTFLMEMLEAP
In words: LBD-GAL4 transfection assay, RXRα-LBD. The series is classed as cell-based. An excerpt:
(§3) Transient transfection of NIH 3T3 cells (2.3×10^4 cells, 24-well plates) with PCMX-β-galactosidase and LBD/yeast Gal 4/luciferase constructs used Fugene (Roche) as before (Ziouzenkova, et al., Proc. Natl. Acad. Sci. USA 100:2730-5 (2003)). For siRNA transfections, 3T3-L1 cells (90% confluence, antibiotic-free DMEM, 10% CS, 24-well plates) received control (sequences C, D) or specific siRXRα and siRXRβ sequences (Santa Cruz) using Lipofectamine 2000/OptiMEM medium (Invitrogen) and media supplemented with 10% FBS 5 h post-transfection. Western blotting evaluated RXR levels post-transfection (48 h). After transfection (48 h), we induced differentiation before analysis after 7 days.
(§4) Given Rald's suppression of PPARγ agonist-stimulated adipogenesis and adiponectin release, we tested if Rald altered activation of RAR and RXR, and if it did so in a way distinct from other retinoids. Ligand binding domain (LBD)-GAL4 transfection assays were performed in 3T3-NIH fibroblasts in the presence or absence of known specific nuclear receptor agonists and/or Rald. […] Rald alone had no effect on RXRα-LBD activation. […] Thus, Rald plays a distinct, independent role from RA in RXRα-LBD regulation, suppressing ligand-mediated activation.

The subject of series [2] is PPAR response element (PPRE). In words: PPRE luciferase construct after RXR and/or PPARγ transfection. It counts as cell-based.
From the text: as §3, §2

The next series concerns the target T3, RARα-LBD (Homo sapiens, UniProt P10276).
T3 construct: expressed in transfected cells; host or cells: NIH 3T3 cells
T3 sequence (P10276 183-417 limits assumed): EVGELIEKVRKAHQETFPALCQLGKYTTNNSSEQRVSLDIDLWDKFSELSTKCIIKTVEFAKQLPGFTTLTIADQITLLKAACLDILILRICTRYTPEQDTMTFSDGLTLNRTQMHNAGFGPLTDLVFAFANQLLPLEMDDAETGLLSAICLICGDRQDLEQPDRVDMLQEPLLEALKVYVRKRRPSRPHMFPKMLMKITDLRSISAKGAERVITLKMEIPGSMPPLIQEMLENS
In words: LBD-GAL4 transfection assay, RARα-LBD. It counts as cell-based.
From the text: as §3, §4

Series [3] deals with preadipocytes isolated from human visceral fat depots. Briefly: Adipogenesis in preadipocytes from human visceral fat. It counts as cell-based.
The target of the next series is T4, PPARγ-LBD (Homo sapiens, UniProt P37231).
T4 construct: expressed in transfected cells; host or cells: NIH 3T3 cells
T4 sequence (P37231 238-503 limits assumed): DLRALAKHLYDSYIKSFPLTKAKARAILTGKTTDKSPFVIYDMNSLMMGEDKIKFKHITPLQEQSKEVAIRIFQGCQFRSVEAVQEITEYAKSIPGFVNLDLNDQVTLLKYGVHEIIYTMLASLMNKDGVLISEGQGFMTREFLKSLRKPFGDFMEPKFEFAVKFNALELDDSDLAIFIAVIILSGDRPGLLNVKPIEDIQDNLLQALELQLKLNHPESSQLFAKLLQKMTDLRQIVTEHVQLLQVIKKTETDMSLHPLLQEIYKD
In words: Cell-based PPARγ-LBD assay. To be noted: presence of BRL; concentrations <1 μM.
From the text: as §3, §2

Another series deals with ob/ob mice. In words: ob/ob mice, intraperitoneal administration, 3 weeks. It counts as in vivo, mouse. As to conditions: for percentage of subcutaneous fat relative to total body fat / RBP4 plasma levels as compared to vehicle: retinoids 500 nM. An excerpt: The Standing Committee On Animals at Harvard Medical School approved all protocols.
MRI data (1 mm slices) obtained on a Bruker Avance 500 wide bore spectrometer (11.7 T; 500 MHz for proton) fitted with a gradient amplifier and a 30 mm “birdcage” transmitter/receiver coil was processed with Paravision™ software. Spin Echo parameters included TI weighted images: TE=15 ms and TR=300 ms, matrix=256, FOV=30 mm; RARE images: TE=51 ms, TR=2500 ms, matrix=256, FOV=30 mm. Abdominal fat measurements used axial slices (n=8) at the level of the left renal pelvis.
After acclimation to powdered high fat diet (4 d), food/water intake, oxygen consumption, and carbon dioxide production were measured in metabolic cages (Ancare, Charles River Laboratories). Calculated metabolic rate (Weir equation) was expressed per g body weight. We performed insulin (ITT) and glucose tolerance tests (GTT) after food deprivation (16 h) using intraperitoneal insulin injection (ITT, 0.1 U/ml 0.005 ml/g body weight) or single 25% dextrose (GTT, 0.004 mL/g body weight) administration and glucometer measurements (Accu-Chek Advantage, Roche).
After 3 weeks, subcutaneous fat mass was quantified by magnetic resonance imaging (MRI).

Series [4] has as its system RXRα/RXRβ siRNA-treated 3T3-L1 adipocytes. Briefly: 3T3-L1 adipogenesis assay after RXRα/RXRβ siRNA. It counts as cell-based, mouse. To be noted: RXRα/RXRβ siRNA 48 hours, differentiation 7 days.
From the text: as §3, §1
To evaluate Rald effects in an RXR loss of function model, 3T3-L1 adipogenesis assays in the presence of Rald were repeated but after first decreasing RXRα and RXRβ levels using siRNA to each RXR isotype. […]

A further series relates to rats. As to conditions: cited from earlier work.
Where [5] appears, read: cell-free radioligand displacement, read-out: Kd, displacement of high affinity PPARγ agonists.
Where [6] appears, read: summary statement, unit inferred, read-out: Kd, receptor binding.
[7] abbreviates: MRI after 3 weeks, i.p., citral 10 μM.

Consider `CC1=C(/C=C/C(C)=C\C=C\C(C)=C\C(=O)O)C(C)(C)CCC1` [9-cis RA, reference compound], for which, in series [1], the “adiponectin expression, compound added early” value was “inhibited” and the “adiponectin expression / adipogenesis, compound added later” value (shortened to “adiponectin expression / adipogenesis”) was “no effect”.

One may read the Kd as the concentration at which binding is half-saturated. In the case of `CC1=C(/C=C/C(C)=C\C=C\C(C)=C\C=O)C(C)(C)CCC1` [9-cis Rald], the Kd on Human full-length PPARγ2 (setting [5]) and on Human full-length PPARγ2 (setting [6]) was 5.9 ± 0.7 µM each time.

Regarding `CC1=C(/C=C/C(C)=C/C=C/C(C)=C/C=O)C(C)(C)CCC1` [13-cis Rald], the Kd at Human full-length PPARγ2 (setting [5]) and on Human full-length PPARγ2 (setting [6]) was 9.7 ± 1.2 µM throughout.

For the compound `CN(CCOc1ccc(CC2SC(=O)NC2=O)cc1)c1ccccn1` (stereo not drawn) [BRL, rosiglitazone, reference compound], in series [1], the “adiponectin levels induced by BRL stimulation” value is recorded as “six-fold increase”.

Consider `CC1=C(/C=C/C(C)=C/C=C/C(C)=C/C=O)C(C)(C)CCC1` [Rald, retinaldehyde], for which the RXRα-LBD activation entry on RXRα-LBD (compound alone) was “no effect”. Moreover, the “RXRα-LBD activation by 9-cis RA” value on RXRα-LBD (in presence of 9-cis RA) is on record as “significantly inhibited”. Further, the “inhibition of PPRE activation” value in series [2] (PPARγ and RXR co-transfection and PPARγ agonist stimulation) came out at 60%. Also, the “PPRE activation by both agonists (9-cis RA or BRL)” value in series [2] (RXR and/or PPARγ transfection) is listed as “significantly inhibited”. Also, the RARα-LBD activation result at RARα-LBD (compound alone, 3T3-NIH fibroblasts) is given as “weakly activated”. In addition, the “RARα-LBD activation by 9-cis RA” value at RARα-LBD (in presence of 9-cis RA) was “did not alter”. For the same compound, in series [1], the “adiponectin levels induced by BRL stimulation” value is “mitigated”; the “adiponectin expression, compound added early” value is listed as “inhibited”; the “adiponectin expression / adipogenesis” value was “also inhibited adipogenesis”. Moreover, the “mRNA expression of adipogenic target genes CD36, adiponectin, aP2” value in series [1] (Rald levels as low as 100 nM, presence or absence of BRL) is given as “suppressed”. Moreover, in [1] (absence and presence of BRL), the lipid accumulation entry was “decreased”. Besides, the adiponectin secretion result in [1] (stimulation early or late, concentration-dependent) was “decreased”. The adipogenesis entry in series [3] is “repressed”. In addition, the PPARγ-LBD activation result on PPARγ-LBD was “suppresses”. The subcutaneous fat result in the series with ob/ob mice (MRI after 3 weeks, i.p. 500 nM) is “significantly less subcutaneous fat”. Besides, the “percentage of subcutaneous fat relative to total body fat” value in the series on ob/ob mice (setting [7]) came to 15.5±0.6%. Besides, the glucose tolerance result with ob/ob mice (i.p., Rald 500 nM, citral 10 μM) is reported as “improved”. Further, in the series on ob/ob mice (i.p., citral 10 μM), the “RBP4 plasma levels as compared to vehicle” value is recorded as “significantly suppressed”. Also, the Kd on Human full-length PPARγ2 (setting [6]) came to 11.9 ± 1.9 µM. For the same compound, in [4], the “adiponectin secretion after siRNA exposure” value is “no additional effects” and the “triglyceride accumulation after siRNA exposure” value is on record as “further decreased”.

`CC1=C(/C=C/C(C)=C/C=C/C(C)=C/C(=O)O)C(C)(C)CCC1` [all-trans RA, Retinoic acid, reference compound]: the “adiponectin expression / adipogenesis” value in series [1] is on record as “no effect”. Further, the “percentage of subcutaneous fat relative to total body fat” value in the series on ob/ob mice (setting [7]) came to 19.1±1.6%. Besides, the “RBP4 plasma levels as compared to vehicle” value in the series with ob/ob mice (i.p., citral 10 μM) is on record as “no effect”.

As to `CC(C)=CCCC(C)=CC=O` [citral, 3,7-dimethyl-2,6-octadienal], the tolerability entry in the series with rats (high doses, rats) is “well tolerated”. Besides, the “body weight versus citral free diet” value with rats (rats fed a diet with citral) is listed as “weighed less”. In the series on ob/ob mice (i.p., citral 10 μM), the “RBP4 plasma levels as compared to vehicle” value is “significantly suppressed”.

On to `CC1=C(/C=C/C(C)=C/C=C/C(C)=C/CO)C(C)(C)CCC1` [vitamin A, retinol, reference compound], for which, in the series with ob/ob mice (setting [7]), the “percentage of subcutaneous fat relative to total body fat” value worked out at 17.3±1.3%. For the same compound, in the series with ob/ob mice (i.p., citral 10 μM), the “RBP4 plasma levels as compared to vehicle” value is given as “increased RBP4 plasma levels two-fold”.

These data come from US9078852B2, “Retinaldehyde in the treatment of obesity, diabetes and other conditions” (The Brigham and Women's Hospital, Inc., priority 2008, dated 2015).
